Experimental data as given in ChEMBL document CHEMBL1201862, “PubChem BioAssay data set” (2004).
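96-well plates; 48 h exposure; 5 concentrations. Endpoints by linear interpolation between flanking doses. Not reached: highest tested concentration assigned. At the GI50, growth is halved.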 Activity calls are given as the source filed them. Rule as the data show it: active = GI50 up to about 1.1 µM and inactive = higher.

Key:
Assay in all cases: NCI tumour cell line growth inhibition, 48 h
KM12 = test system: KM12
HT-29 = test system: HT-29
DMS-114 = test system: DMS-114
IGROV-1 = test system: IGROV-1
NCI-H460 = test system: NCI-H460
SW-620 = test system: SW-620
KM-20L2 = test system: KM-20L2
NCI-H23 = test system: NCI-H23
MOLT-4 = test system: MOLT-4
HL-60 = test system: HL-60
SNB-78 = test system: SNB-78
LOX IMVI = test system: LOX IMVI
RXF 631 = test system: RXF 631
SF-539 = test system: SF-539
LXFL 529 = test system: LXFL 529
SK-OV-3 = test system: SK-OV-3
HOP-62 = test system: HOP-62
M14 = test system: M14
Malme-3M = test system: Malme-3M
NCI-H226 = test system: NCI-H226
COLO 205 = test system: COLO 205
HCT-116 = test system: HCT-116
TK-10 = test system: TK-10
OVCAR-8 = test system: OVCAR-8
HCT-15 = test system: HCT-15
A498 = test system: A498
UO-31 = test system: UO-31
SK-MEL-5 = test system: SK-MEL-5
OVCAR-3 = test system: OVCAR-3
DLD-1 = test system: DLD-1
SF-295 = test system: SF-295
RXF 393 = test system: RXF 393
EKVX = test system: EKVX
U-251 = test system: U-251
786-0 = test system: 786-0
M19-MEL = test system: M19-MEL
SF-268 = test system: SF-268
DMS-273 = test system: DMS-273
UACC-62 = test system: UACC-62
XF498 = test system: XF498
CCRF-CEM = test system: CCRF-CEM
NCI-H522 = test system: NCI-H522
SNB-75 = test system: SNB-75
A549 = test system: A549
HOP-92 = test system: HOP-92
OVCAR-5 = test system: OVCAR-5
UACC-257 = test system: UACC-257
RPMI-8226 = test system: RPMI-8226
K562 = test system: K562
CAKI-1 = test system: CAKI-1
SN12C = test system: SN12C
SR = test system: SR
OVCAR-4 = test system: OVCAR-4
SNB-19 = test system: SNB-19
SK-MEL-28 = test system: SK-MEL-28
HOP-18 = test system: HOP-18
ACHN = test system: ACHN
SK-MEL-2 = test system: SK-MEL-2
HCC 2998 = test system: HCC 2998

For `COc1cc2c3c(c1OC)-c1c(ccc4c1OCO4)CC3(C#N)N(C(=O)c1ccccc1)CC2` (stereo not given), the GI50 (KM12) was > 100 µM (inactive), the GI50 (HT-29) was > 100 µM (inactive) and the GI50 (DMS-114) was 45.5 µM (inactive). For the same compound, the GI50 (IGROV-1) was > 100 µM (inactive), the GI50 (NCI-H460) was 98.9 µM (inactive) and the GI50 (SW-620) was > 100 µM (inactive). The GI50 (KM-20L2) was > 100 µM (inactive), the GI50 (NCI-H23) was 52.8 µM (inactive) and the GI50 (MOLT-4) was > 100 µM (inactive). For the same compound, the GI50 (HL-60) was > 100 µM (inactive), the GI50 (SNB-78) was 66.4 µM (inactive) and the GI50 (LOX IMVI) was 43 µM (inactive). The GI50 (RXF 631) was 49.4 µM (inactive), the GI50 (SF-539) was 28.1 µM (inactive) and the GI50 (LXFL 529) was 73.8 µM (inactive). For the same compound, the GI50 (SK-OV-3) was 50.5 µM (inactive), the GI50 (HOP-62) was 38.5 µM (inactive) and the GI50 (M14) was > 100 µM (inactive). The GI50 (Malme-3M) was 51.2 µM (inactive), the GI50 (NCI-H226) was 37.7 µM (inactive) and the GI50 (COLO 205) was > 100 µM (inactive). For the same compound, the GI50 (HCT-116) was 42.2 µM (inactive), the GI50 (TK-10) was > 100 µM (inactive) and the GI50 (OVCAR-8) was 44.5 µM (inactive). The GI50 (HCT-15) was 39.7 µM, the GI50 (A498) was > 100 µM (inactive) and the GI50 (UO-31) was 99.8 µM (inactive). The GI50 (SK-MEL-5) was > 100 µM (inactive), the GI50 (OVCAR-3) was 45.3 µM (inactive) and the GI50 (DLD-1) was 52.2 µM (inactive). For the same compound, the GI50 (SF-295) was 41.4 µM (inactive), the GI50 (RXF 393) was 36.1 µM (inactive) and the GI50 (EKVX) was 74.1 µM (inactive). The GI50 (U-251) was 36.4 µM (inactive), the GI50 (786-0) was 30.7 µM (inactive) and the GI50 (M19-MEL) was 67.6 µM (inactive). The GI50 (SF-268) was 43.2 µM (inactive), the GI50 (DMS-273) was 49.7 µM (inactive) and the GI50 (UACC-62) was 42 µM (inactive). The GI50 (XF498) was 23 µM (inactive), the GI50 (CCRF-CEM) was 51.3 µM (inactive) and the GI50 (NCI-H522) was > 100 µM (inactive). For the same compound, the GI50 (SNB-75) was 21.2 µM (inactive), the GI50 (A549) was 64.3 µM (inactive) and the GI50 (HOP-92) was 26.4 µM (inactive). For the same compound, the GI50 (OVCAR-5) was > 100 µM (inactive), the GI50 (UACC-257) was 57.7 µM (inactive) and the GI50 (RPMI-8226) was 8.91 µM (inactive). The GI50 (K562) was 54.6 µM (inactive), the GI50 (CAKI-1) was 36.6 µM (inactive) and the GI50 (SN12C) was 51.2 µM (inactive). The GI50 (SR) was > 100 µM (inactive), the GI50 (OVCAR-4) was 21 µM (inactive) and the GI50 (SNB-19) was 61.5 µM (inactive).

In the case of `C1CCN(c2nsc(N3CCCCC3)n2)CC1`, the GI50 (KM12) is reported as > 100 µM (inactive), the GI50 (HT-29) is reported as > 100 µM (inactive) and the GI50 (DMS-114) is reported as > 100 µM (inactive). The GI50 (IGROV-1) was > 100 µM (inactive), the GI50 (SK-MEL-28) was > 100 µM (inactive) and the GI50 (NCI-H460) was > 100 µM (inactive). The GI50 (SW-620) was > 100 µM (inactive), the GI50 (KM-20L2) was > 100 µM (inactive) and the GI50 (NCI-H23) was > 100 µM (inactive). The GI50 (MOLT-4) was > 100 µM (inactive), the GI50 (HL-60) was 92 µM (inactive) and the GI50 (HOP-18) was > 100 µM (inactive). The GI50 (SNB-78) was > 100 µM (inactive), the GI50 (LOX IMVI) was > 100 µM (inactive) and the GI50 (RXF 631) was > 100 µM (inactive). The GI50 (ACHN) was > 100 µM (inactive), the GI50 (SF-539) was > 100 µM (inactive) and the GI50 (LXFL 529) was > 100 µM (inactive). For the same compound, the GI50 (SK-OV-3) was > 100 µM (inactive), the GI50 (HOP-62) was > 100 µM (inactive) and the GI50 (M14) was > 100 µM (inactive). For the same compound, the GI50 (Malme-3M) was > 100 µM (inactive), the GI50 (NCI-H226) was > 100 µM (inactive) and the GI50 (HCT-116) was > 100 µM (inactive). For the same compound, the GI50 (TK-10) was > 100 µM (inactive), the GI50 (OVCAR-8) was > 100 µM (inactive) and the GI50 (HCT-15) was greater than 100 µM. The GI50 (A498) was > 100 µM (inactive), the GI50 (UO-31) was > 100 µM (inactive) and the GI50 (SK-MEL-5) was > 100 µM (inactive). The GI50 (DLD-1) was > 100 µM (inactive), the GI50 (SF-295) was > 100 µM (inactive) and the GI50 (RXF 393) was > 100 µM (inactive). For the same compound, the GI50 (EKVX) was > 100 µM (inactive), the GI50 (U-251) was > 100 µM (inactive) and the GI50 (786-0) was > 100 µM (inactive). The GI50 (M19-MEL) was > 100 µM (inactive), the GI50 (SF-268) was > 100 µM (inactive) and the GI50 (DMS-273) was > 100 µM (inactive). The GI50 (UACC-62) was > 100 µM (inactive), the GI50 (CCRF-CEM) was > 100 µM (inactive) and the GI50 (NCI-H522) was > 100 µM (inactive). For the same compound, the GI50 (SNB-75) was > 100 µM (inactive), the GI50 (A549) was > 100 µM (inactive) and the GI50 (HOP-92) was 97.1 µM (inactive). The GI50 (OVCAR-5) was > 100 µM (inactive), the GI50 (SK-MEL-2) was > 100 µM (inactive) and the GI50 (UACC-257) was > 100 µM (inactive). The GI50 (RPMI-8226) was 87.3 µM (inactive), the GI50 (HCC 2998) was > 100 µM (inactive) and the GI50 (K562) was > 100 µM (inactive). The GI50 (CAKI-1) was > 100 µM (inactive), the GI50 (SN12C) was > 100 µM (inactive) and the GI50 (SR) was > 100 µM (inactive). For the same compound, the GI50 (OVCAR-4) was > 100 µM (inactive) and the GI50 (SNB-19) was > 100 µM (inactive).
